The text below walks through data of PMC9458065, “Discovery of Quinacrine as a Potent Topo II and Hsp90 Dual-Target Inhibitor, Repurposing for Cancer Therapy” (Molecules, 2022).

For experiment [1], the system named is HL60 (HL−60 human leukemia cell). The experiment in a line: cells. The arrangement: MTT cell proliferation assay, OD 570 nm, IC50 from triplicate dose-response. The conditions noted are these: MTT, 48 h. As to the method: The cell proliferation assay was evaluated using the MTT assay as described by Mosmann, with modifications. Cells were seeded into 96−well plates (5 × 10^3 cells/well) and exposed to various concentrations of compounds. After 48 h of treatment, 20 μL of 2.5 mg/mL MTT reagent was added to each well, and the cells were further incubated for 4 h at 37 ℃. The cells in each well were then treated with 100 μL of dimethyl sulfoxide (DMSO), and the optical density (OD) was recorded at 570 nm using a microplate reader (Bio−Tek). All experiments were performed in parallel three times, and the IC50 values were derived from the mean OD values of triplicate tests versus the drug concentration curves. […] HL−60 human leukemia cell is sensitive to Topo II inhibitors, which are commonly used to evaluate the inhibitory effect of Topo II inhibitors on proliferation.

The next experiment has as its target T1, human Topo IIα (Homo sapiens, UniProt P11388).
T1 construct: gene TOP2A; full-length enzyme of a commercial relaxation kit (Inspiralis)
The experiment can be described thus: pBR322 DNA relaxation, agarose gel. Format: biochemical.

A further experiment addresses T2, hTopo IIα ATPase (Homo sapiens, UniProt P11388).
T2 construct: gene TOP2A; ATPase region, residues 29-428 (400 residues), N-terminal 6xHis, pET28a, E. coli BL21 (DE3)
The experiment in a line: malachite green ATPase assay. Type of experiment: biochemical. The note with it: 100 µM; […] ATP, […] MgCl2, pH […] °C, […] min; relative inhibition rate, not absolute inhibition. An excerpt: malachite green ATPase assay on hTopo IIα ATPase

A further experiment has as its target T3, Hsp90α (Homo sapiens, UniProt P07900).
T3 construct: gene HSP90AA1
The experiment can be described thus: malachite green ATPase assay. The note with it: read-out: % inhibition at 100 μM. Type of experiment: biochemical.

Another experiment addresses T4, Hsp90α N−ATPase (9−236) (Homo sapiens, UniProt P07900).
T4 construct: gene HSP90AA1
The experiment can be described thus: fluorescence polarization displacement of GM-FITC.

Molecules are shown by their SMILES. Counter-ions that a name gives are not always drawn.

T2 sequence (P11388 29-428): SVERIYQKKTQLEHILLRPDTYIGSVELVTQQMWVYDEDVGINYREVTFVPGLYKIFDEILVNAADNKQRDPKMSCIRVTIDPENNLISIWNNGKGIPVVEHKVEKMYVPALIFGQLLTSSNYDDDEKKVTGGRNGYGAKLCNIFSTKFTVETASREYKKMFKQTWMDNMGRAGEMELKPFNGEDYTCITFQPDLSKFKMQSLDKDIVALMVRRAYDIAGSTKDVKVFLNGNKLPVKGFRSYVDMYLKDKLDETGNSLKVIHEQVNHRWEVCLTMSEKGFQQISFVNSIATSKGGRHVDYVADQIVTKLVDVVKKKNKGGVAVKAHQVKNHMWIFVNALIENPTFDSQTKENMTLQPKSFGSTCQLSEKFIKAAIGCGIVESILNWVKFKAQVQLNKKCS
T1 sequence (P11388 whole entry): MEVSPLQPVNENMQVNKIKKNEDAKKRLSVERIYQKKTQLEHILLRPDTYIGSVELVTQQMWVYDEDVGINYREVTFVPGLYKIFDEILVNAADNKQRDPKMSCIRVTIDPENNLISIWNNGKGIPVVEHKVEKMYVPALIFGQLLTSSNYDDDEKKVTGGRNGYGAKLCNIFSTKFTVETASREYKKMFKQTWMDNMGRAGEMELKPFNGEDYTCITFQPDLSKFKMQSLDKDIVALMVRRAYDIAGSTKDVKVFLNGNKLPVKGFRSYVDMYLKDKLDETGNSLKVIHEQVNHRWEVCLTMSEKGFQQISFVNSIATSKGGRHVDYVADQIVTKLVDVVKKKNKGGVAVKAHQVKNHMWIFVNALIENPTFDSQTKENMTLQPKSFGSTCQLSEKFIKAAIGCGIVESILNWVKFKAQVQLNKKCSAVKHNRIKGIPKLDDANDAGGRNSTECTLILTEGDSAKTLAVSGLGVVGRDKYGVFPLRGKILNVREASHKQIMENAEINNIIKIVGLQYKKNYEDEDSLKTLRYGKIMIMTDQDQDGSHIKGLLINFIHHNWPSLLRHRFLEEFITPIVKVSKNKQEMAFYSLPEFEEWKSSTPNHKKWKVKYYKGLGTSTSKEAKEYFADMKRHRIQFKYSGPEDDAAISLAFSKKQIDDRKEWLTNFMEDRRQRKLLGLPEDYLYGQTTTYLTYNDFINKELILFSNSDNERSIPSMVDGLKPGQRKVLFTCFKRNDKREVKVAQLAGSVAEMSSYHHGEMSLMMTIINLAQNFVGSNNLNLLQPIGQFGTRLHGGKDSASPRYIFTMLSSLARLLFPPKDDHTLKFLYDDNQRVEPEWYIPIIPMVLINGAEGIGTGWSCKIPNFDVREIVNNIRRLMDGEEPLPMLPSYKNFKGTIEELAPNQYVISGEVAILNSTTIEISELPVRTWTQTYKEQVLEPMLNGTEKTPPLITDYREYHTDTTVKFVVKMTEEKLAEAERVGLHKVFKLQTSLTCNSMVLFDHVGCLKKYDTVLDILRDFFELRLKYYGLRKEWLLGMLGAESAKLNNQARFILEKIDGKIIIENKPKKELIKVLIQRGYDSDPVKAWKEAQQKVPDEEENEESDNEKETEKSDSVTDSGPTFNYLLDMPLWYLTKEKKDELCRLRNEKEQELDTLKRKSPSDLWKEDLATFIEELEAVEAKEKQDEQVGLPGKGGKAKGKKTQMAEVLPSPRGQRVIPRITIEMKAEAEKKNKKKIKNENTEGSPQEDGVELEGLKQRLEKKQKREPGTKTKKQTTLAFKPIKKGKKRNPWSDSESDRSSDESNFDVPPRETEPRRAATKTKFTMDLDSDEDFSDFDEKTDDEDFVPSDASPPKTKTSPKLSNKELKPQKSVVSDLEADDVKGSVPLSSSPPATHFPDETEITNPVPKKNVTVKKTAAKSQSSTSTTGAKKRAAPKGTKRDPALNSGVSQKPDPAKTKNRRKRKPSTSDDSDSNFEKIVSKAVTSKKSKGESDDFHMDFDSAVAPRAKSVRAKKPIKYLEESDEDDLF

Consider `O=C1C(O)=C([C@H]2CC[C@H](c3ccc(Cl)cc3)CC2)C(=O)c2ccccc21` [2−G7, Atovaquone], for which the IC50 (in general, the concentration that gives 50% inhibition) in experiment [1] worked out at 9.43 µM.

As for `N=C(N)NC(=O)Cc1c(Cl)cccc1Cl` [2−H11, Guanfacine HCl], in experiment [1], the IC50 was greater than 25 µM.

In turn, `CC[N+](CC)(CC)CCOc1cccc(OCC[N+](CC)(CC)CC)c1OCC[N+](CC)(CC)CC` [3−C11, Gallamine triethiodide] registered a half-inhibitory concentration (IC50) in experiment [1] greater than 25 µM.

As to `CN1CCN(CCCN2c3ccccc3Sc3ccc(C(F)(F)F)cc32)CC1` [3−E6, Trifluoperazine 2HCl], the IC50 in experiment [1] is greater than 25 µM.

On to `CC(=O)Nc1ccc(CC(=O)O)cc1` [3−H6, Actarit], for which the IC50 in experiment [1] was determined as 8.02 µM.

With `O=C(c1ccc(OCCN2CCCCC2)cc1)c1c(-c2ccc(O)cc2)sc2cc(O)ccc12` [4−C3, Raloxifene HCl], the IC50 in experiment [1] was determined as 7.2 µM.

On to `Nc1ccc(C(=O)O)c(O)c1` [5−E4, 4−aminosalicylic acid], for which the IC50 in experiment [1] was greater than 25 µM.

In experiment [1], `Nc1ccc(O)c(C(=O)O)c1` [5−E5, 5−aminosalicylic acid] returned a half-inhibitory concentration (IC50) greater than 25 µM.

`CC1(C)S[C@@H]2[C@H](NC(=O)[C@H](N)c3ccccc3)C(=O)N2[C@H]1C(=O)O` [5−E6, Ampicillin trihydrate] yielded an IC50 in experiment [1] greater than 25 µM.

In experiment [1], `COc1ccc(C[C@@H]2c3cc(OC)c(OC)cc3CC[N@+]2(C)CCC(=O)OCCCCCOC(=O)CC[N@@+]2(C)CCc3cc(OC)c(OC)cc3[C@H]2Cc2ccc(OC)c(OC)c2)cc1OC` [5−E11, Atracurium besylate] returned an IC50 of 22.9 µM.

Turning to `COc1cc2nc(N3CCN(C(=O)C4COc5ccccc5O4)CC3)nc(N)c2cc1OC` (centres unmarked) [6−B10, Doxazosin mesylate], in experiment [1], half-maximal inhibition (IC50) was put at 19.7 µM.

`CCN(CC)CCCC(C)Nc1c2ccc(Cl)cc2nc2ccc(OC)cc12` (centres unmarked) [7−F2, quinacrine]: the IC50 on human Topo IIα was determined as 6.18 µM; in experiment [1] it was 5.22 µM; at Hsp90α N−ATPase (9−236), 13.6 µM. Further, the “Topo II ATPase RIR (%) *” value on hTopo IIα ATPase came out at 42.3%. At Hsp90α, the inhibition – broadly, the change of the read-out against control, counted positive when it falls – at 100 µM is roughly 70%.

Compound `CN[C@@H]1[C@H](O[C@H]2[C@H](O[C@H]3[C@H](O)[C@@H](O)[C@H](N=C(N)N)[C@@H](O)[C@@H]3N=C(N)N)O[C@@H](C)[C@]2(O)C=O)O[C@@H](CO)[C@H](O)[C@H]1O` [7−H3, Streptomycin sulfate] came in with an IC50 in experiment [1] greater than 25 µM.

Take `COc1ncnc(NS(=O)(=O)c2ccc(N)cc2)c1OC` [7−H4, Sulfadoxine]: the IC50 in experiment [1] is greater than 25 µM.

In experiment [1], `Nc1ccc(S(=O)(=O)Nc2ncccn2)cc1` [7−H5, Sulfadiazine] had an IC50 greater than 25 µM.

As for `COc1cc(NS(=O)(=O)c2ccc(N)cc2)nc(OC)n1` [7−H6, Sulfadimethoxine], the IC50 in experiment [1] is greater than 25 µM.

As for `O=C(O)c1cc(/N=N/c2ccc(S(=O)(=O)Nc3ccccn3)cc2)ccc1O` [7−H7, Sulfasalazine], the IC50 in experiment [1] is greater than 25 µM.

`CCOc1ccccc1OCCN[C@H](C)Cc1ccc(OC)c(S(N)(=O)=O)c1` [7−H8, Tamsulosin HCl] came in with an IC50 in experiment [1] greater than 25 µM.

As to `CCCc1nc2c(C)cc(-c3nc4ccccc4n3C)cc2n1Cc1ccc(-c2ccccc2C(=O)O)cc1` [7−H9, Telmisartan], the “Topo II ATPase RIR (%) *” value on hTopo IIα ATPase is 79.4%. Moreover, in experiment [1], the IC50 was greater than 25 µM.

Take `CN1C(C(=O)Nc2ccccn2)=C(O)c2sccc2S1(=O)=O` [7−H10, Tenoxicam]: in experiment [1], the IC50 was greater than 25 µM.

For `COc1cc2nc(N3CCN(C(=O)C4CCCO4)CC3)nc(N)c2cc1OC` (centres unmarked) [7−H11, Terazosin HCl], the IC50 in experiment [1] is greater than 25 µM.

In experiment [1], `N[C@@H](Cc1cc(I)c(Oc2cc(I)c(O)c(I)c2)c(I)c1)C(=O)O` [8−H9, L−thyroxine] came in with an IC50 greater than 25 µM.

`CN[C@@H]1C[C@H]2O[C@@](C)([C@@H]1OC)n1c3ccccc3c3c4c(c5c6ccccc6n2c5c31)C(=O)NC4` [K−B6, Staurosporine]: at hTopo IIα ATPase, the “Topo II ATPase RIR (%) *” value came to 111.2%.

Regarding `N#C/C(=C\c1ccc(O)c(O)c1)C(N)=S` [K−C2, Tyrphostin 47], the “Topo II ATPase RIR (%) *” value on hTopo IIα ATPase is on record as 90.3%. For the same compound, the IC50 in experiment [1] was greater than 25 µM.

Take `N#CC(C#N)=C(N)/C(C#N)=C/c1cc(O)c(O)c(O)c1` [K−C3, Tyrphostin 51]: the “Topo II ATPase RIR (%) *” value on hTopo IIα ATPase is given as 85.8%. This compound also came in with an IC50 in experiment [1] greater than 25 µM.

Compound `CO[C@@H]1[C@H](N(C)C(=O)c2ccccc2)C[C@H]2O[C@]1(C)n1c3ccccc3c3c4c(c5c6ccccc6n2c5c31)C(=O)NC4` [K−C10, PKC−412] displayed an IC50 in experiment [1] of 0.75 µM.

Turning to `Oc1cc(O)cc(/C=C/c2ccc(O)c(O)c2)c1` [K−C11, Piceatannol], on hTopo IIα ATPase, the “Topo II ATPase RIR (%) *” value came to 70.5%. Further, in experiment [1], the half-maximal inhibitory concentration (IC50) came to 12.1 µM.

Take `N#C/C(=C\c1ccc(O)c(O)c1)C(=O)NCc1ccccc1` [K−D1, AG−490]: the “Topo II ATPase RIR (%) *” value at hTopo IIα ATPase turned out to be 61.6%. In experiment [1], this compound came in with an IC50 of 19 µM.

Consider `COC[C@H]1OC(=O)c2coc3c2[C@@]1(C)C1=C(C3=O)[C@@H]2CCC(=O)[C@@]2(C)C[C@H]1OC(C)=O` [K−D6, Wortmannin], for which the IC50 in experiment [1] is 13.3 µM.

In turn, `CN(C)CCCn1cc(C2=C(c3c[nH]c4ccccc34)C(=O)NC2=O)c2ccccc21` [K−D7, GF 109203X] registered an IC50 in experiment [1] of 9.51 µM.

Turning to `Cc1cc(O)c2c(=O)c3c(O)cc(O)c4c5c(O)cc(O)c6c(=O)c7c(O)cc(C)c8c1c2c(c34)c(c78)c65` [K−D8, Hypericin], the IC50 in experiment [1] was greater than 25 µM.

`Cn1cc(C2=C(c3cn(CCCSC(=N)N)c4ccccc34)C(=O)NC2=O)c2ccccc21` [K−D9, Ro 31−8220]: the “Topo II ATPase RIR (%) *” value on hTopo IIα ATPase was found to be 99.7%. The same compound came in with an IC50 in experiment [1] of 1.18 µM.

For the compound `CCCCCCCCCCCCC/C=C/[C@@H](O)[C@@H](N)CO` [K−D10, Sphingosine], the “Topo II ATPase RIR (%) *” value on hTopo IIα ATPase is recorded as 94.3%. This compound yielded an IC50 in experiment [1] of 11.1 µM.

As for `O=c1c(-c2ccc(O)cc2)coc2cc(O)ccc12` [K−F12, Daidzein], at hTopo IIα ATPase, the “Topo II ATPase RIR (%) *” value is reported as 101.2%. Besides, in experiment [1], the midpoint of inhibition, the IC50, lay at 3.02 µM.

Compound `COc1cc([C@@H]2c3cc4c(cc3[C@@H](O[C@@H]3O[C@@H]5CO[C@@H](C)O[C@H]5[C@H](O)[C@H]3O)[C@H]3COC(=O)[C@H]23)OCO4)cc(OC)c1O` [VP−16] yielded an IC50 in experiment [1] of 0.17 µM.
